These results are taken from US20160251403A1, “PEPTIDE COMBINATIONS AND USES THEREOF IN TREATING DUST MITE ALLERGY” (ALK-ABELLO A/S, priority 2013, published 2016).

No end group written: not given here.

The target in one test is DRB1_1201 (Homo sapiens, UniProt P01903+P01911, A100R/A169T/D57E/D86V/F55L/H45Y/K41T/L162R/M171V/P40S/Q125H/Q178H/Q39Y/Q99D/R42G/S66L/T262R/V114A/V67L/W38E/Y59H/Y61H/Y89S). The test can be described thus: Competitive MHC class II binding assay, DRB1_1201.
The target of a further test is T1, DPA10103-DPB10401 (Homo sapiens, UniProt P04440+P20036).
T1 sequence (P20036 29-260): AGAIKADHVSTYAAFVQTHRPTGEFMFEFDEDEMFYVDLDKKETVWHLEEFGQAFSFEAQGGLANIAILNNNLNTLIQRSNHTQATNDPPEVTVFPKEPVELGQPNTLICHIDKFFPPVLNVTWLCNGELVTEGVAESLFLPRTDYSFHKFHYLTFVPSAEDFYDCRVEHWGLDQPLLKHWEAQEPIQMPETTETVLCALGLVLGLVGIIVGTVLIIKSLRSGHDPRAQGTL
T1 sequence (P04440 30-258): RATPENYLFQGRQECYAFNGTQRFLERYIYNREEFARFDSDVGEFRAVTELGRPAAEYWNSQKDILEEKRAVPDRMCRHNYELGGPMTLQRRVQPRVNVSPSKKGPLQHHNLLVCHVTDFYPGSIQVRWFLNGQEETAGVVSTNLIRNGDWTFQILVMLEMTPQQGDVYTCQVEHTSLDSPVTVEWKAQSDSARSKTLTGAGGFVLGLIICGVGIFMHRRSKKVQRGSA
The test can be described thus: Competitive MHC class II binding assay, DPA10103-DPB10401.

Test [1] has as its system allergen specific T cells. The test can be described thus: T cell proliferation assay (72 h) with allergen-specific T cell lines from house dust mite allergic donors; % responders. It counts as cell-based, human. The following applies: FIGS. 9b, 9c; subset of 22 donors having about 88% worldwide HLA Class II coverage. As to the method: This example includes a description of how peptides (singly or in combination) were screened for T cell reactivity in the donor population.
The T cell reactivity to peptides disclosed herein was determined either by measuring T cell proliferation of T cell lines specific to the allergens investigated or by measuring the cytokine production of allergen-specific T cells obtained from cultured PBMCs.
TCL specific to the six allergens rproDer p 1, rproDer f 1, rDer p 2, rDer f 2, Der p 4 and Der p 7, respectively or specific to the combination of all six allergens were established from peripheral blood mononuclear cells (PBMCs) of each donor.
PBMCs were isolated from freshly drawn heparinized blood by gradient centrifugation on lymphoprep (Nycomed, Norway), washed twice and re-suspended in RPMI 1640 medium with HEPES and ultraglutamine (Cambrex, Belgium) supplemented with 5% v/v AB-serum (Cambrex, Belgium), 100 units/ml penicillin, and 0.1 mg/ml streptomycin (Sigma, St Louis, USA) (referred to as AB-medium). Isolated PBMCs were CD8 depleted by Macs magnetic depletion according to the manufacturer's instructions (Miltenyi Biotec, Bergisch Gladbach, Germany). […]
The capacity of the different peptides to stimulate allergen specific T cells is analyzed in a standard 72 h T cell proliferation assay, as described in Henmar H et al., Clin Exp Immunol 2008; […]):316-23. […]

Another test addresses DRB1_0301 (Homo sapiens, UniProt P01903+P01911, A100K/A102G/A103R/A169T/F55Y/I96L/K41T/L162R/M171V/P40S/Q125H/Q178H/Q39Y/R42S/S66N/T106N/T262R/W38E/Y61H). The test can be described thus: Competitive MHC class II binding assay, DRB1_0301.
Another test addresses DPA10201-DPB11401. The test can be described thus: Competitive MHC class II binding assay, DPA10201-DPB11401. As to conditions: read-out: HLA-DPA10201-DPB11401; positive binding at cutoff 1000 nM.

As for `CC[C@H](C)[C@H](NC(=O)CNC(=O)[C@@H](NC(=O)[C@@H](NC(=O)[C@@H](NC(=O)[C@H](C)NC(=O)[C@@H](NC(=O)[C@H](C)NC(=O)[C@H](CO)NC(=O)[C@H](Cc1c[nH]cn1)NC(=O)[C@@H](NC(=O)[C@H](CCC(N)=O)NC(=O)[C@H](C)NC(=O)[C@H](CC(C)C)NC(=O)[C@H](C)NC(=O)[C@H](CCC(=O)O)NC(=O)[C@@H](N)CCCNC(=N)N)[C@@H](C)O)[C@@H](C)CC)C(C)C)[C@@H](C)CC)[C@@H](C)CC)C(=O)N[C@@H](CCCCN)C(=O)N[C@@H](CC(=O)O)C(=O)N[C@@H](CC(C)C)C(=O)N[C@@H](CC(=O)O)C(=O)N[C@@H](C)C(=O)O` [pep-130], on DRB1_1201, the IC50 was less than 1000 nM.

The molecule DNGYGYFAANIDLMMIEE [pep-010] had an IC50 at DPA10103-DPB10401 of less than 1000 nM. On to LVGDNGVLASAIATHAKIRD [pep-110], for which the “fraction of donors with T cell response (% donor response)” value in test [1] is given as “higher percentage donor response than the other peptides”. Moreover, the IC50 at DRB1_0301 and at DPA10201-DPB11401 was less than 1000 nM throughout. Take LVKGQQYDIKYTWNVPKIAPK [pep-131]: the “fraction of donors with T cell response (% donor response)” value in test [1] is recorded as “higher percentage donor response than the other peptides”.
